# Patent US11168073B2, “3,3-difluoroallylamines or salts thereof and pharmaceutical compositions comprising the same” (YUHAN CORPORATION, priority 2018, dated 2021)
# Where a name gives a salt, the structure may show the parent alone. Read-outs that look alike come from different tables or passages of the source.
# Tests used:
# Assay type in all cases: biochemical
# [1] = target: T1, recombinant human MAO-A (monoamine oxidase-A) (Homo sapiens, UniProt P21397); assay: Activity evaluation on recombinant human MAO-A (Amplex Red/HRP-coupled assay, 0.5 mM tyramine substrate); settings: read-out: Inhibitory Activity (IC50, nM) MAO-A
# T1 construct: purchased Sigma-Aldrich
# T1 sequence (P21397 1-527): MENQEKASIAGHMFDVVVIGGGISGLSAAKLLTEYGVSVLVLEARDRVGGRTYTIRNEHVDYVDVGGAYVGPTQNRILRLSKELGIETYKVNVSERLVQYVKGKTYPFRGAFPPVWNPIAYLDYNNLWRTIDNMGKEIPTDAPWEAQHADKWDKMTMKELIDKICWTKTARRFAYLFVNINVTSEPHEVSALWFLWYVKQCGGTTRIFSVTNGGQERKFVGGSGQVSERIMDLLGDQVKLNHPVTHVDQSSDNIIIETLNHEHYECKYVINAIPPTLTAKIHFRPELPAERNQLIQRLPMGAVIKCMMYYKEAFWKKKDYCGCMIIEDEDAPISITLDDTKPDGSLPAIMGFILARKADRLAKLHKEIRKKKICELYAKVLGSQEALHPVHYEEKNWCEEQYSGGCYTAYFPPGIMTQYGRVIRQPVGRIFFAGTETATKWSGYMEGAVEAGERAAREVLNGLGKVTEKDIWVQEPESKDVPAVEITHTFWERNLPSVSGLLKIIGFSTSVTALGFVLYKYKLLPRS
# Procedure, shortened: (§1)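 Each oxidase is tested with its own substrate: MAO-A with 0.5 mM tyramine, MAO-B with 1 mM benzylamine, DAO with 1 mM putrescine. After 30 min enzyme-compound preincubation at 37 °C, Amplex Red (200 uM) plus HRP (1 U/mL) reports H2O2 as fluorescence; IC50 is fitted from eight-point curves.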
# [2] = target: T2, recombinant human MAO-B (monoamine oxidase-B) (Homo sapiens, UniProt P27338); assay: Activity evaluation on recombinant human MAO-B (Amplex Red/HRP-coupled assay, 1 mM benzylamine substrate); settings: read-out: Inhibitory Activity (IC50, nM) MAO-B
# T2 construct: purchased Sigma-Aldrich
# T2 sequence (P27338 1-520): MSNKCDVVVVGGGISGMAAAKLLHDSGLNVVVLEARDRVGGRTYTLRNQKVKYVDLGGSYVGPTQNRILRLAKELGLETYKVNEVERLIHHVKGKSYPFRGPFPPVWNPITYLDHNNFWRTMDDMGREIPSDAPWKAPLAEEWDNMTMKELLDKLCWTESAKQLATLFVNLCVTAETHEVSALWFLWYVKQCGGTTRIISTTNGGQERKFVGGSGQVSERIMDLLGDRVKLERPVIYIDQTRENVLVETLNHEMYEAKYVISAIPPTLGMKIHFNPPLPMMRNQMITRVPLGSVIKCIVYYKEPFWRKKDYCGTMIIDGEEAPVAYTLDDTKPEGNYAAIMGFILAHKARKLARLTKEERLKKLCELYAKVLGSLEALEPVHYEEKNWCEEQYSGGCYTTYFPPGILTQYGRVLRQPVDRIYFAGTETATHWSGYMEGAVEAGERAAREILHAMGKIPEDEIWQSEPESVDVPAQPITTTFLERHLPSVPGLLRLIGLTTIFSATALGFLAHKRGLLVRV
# Procedure, shortened: as §1
# [3] = target: T3, recombinant human VAP-1 (Homo sapiens, UniProt Q16853); assay: Activity evaluation on recombinant human VAP-1 (Amplex Red/HRP-coupled hydrogen peroxide assay, benzylamine substrate); settings: read-out: Inhibitory Activity (IC50, nM) human VAP-1
# T3 construct: purchased R&D systems
# T3 sequence (Q16853 1-763): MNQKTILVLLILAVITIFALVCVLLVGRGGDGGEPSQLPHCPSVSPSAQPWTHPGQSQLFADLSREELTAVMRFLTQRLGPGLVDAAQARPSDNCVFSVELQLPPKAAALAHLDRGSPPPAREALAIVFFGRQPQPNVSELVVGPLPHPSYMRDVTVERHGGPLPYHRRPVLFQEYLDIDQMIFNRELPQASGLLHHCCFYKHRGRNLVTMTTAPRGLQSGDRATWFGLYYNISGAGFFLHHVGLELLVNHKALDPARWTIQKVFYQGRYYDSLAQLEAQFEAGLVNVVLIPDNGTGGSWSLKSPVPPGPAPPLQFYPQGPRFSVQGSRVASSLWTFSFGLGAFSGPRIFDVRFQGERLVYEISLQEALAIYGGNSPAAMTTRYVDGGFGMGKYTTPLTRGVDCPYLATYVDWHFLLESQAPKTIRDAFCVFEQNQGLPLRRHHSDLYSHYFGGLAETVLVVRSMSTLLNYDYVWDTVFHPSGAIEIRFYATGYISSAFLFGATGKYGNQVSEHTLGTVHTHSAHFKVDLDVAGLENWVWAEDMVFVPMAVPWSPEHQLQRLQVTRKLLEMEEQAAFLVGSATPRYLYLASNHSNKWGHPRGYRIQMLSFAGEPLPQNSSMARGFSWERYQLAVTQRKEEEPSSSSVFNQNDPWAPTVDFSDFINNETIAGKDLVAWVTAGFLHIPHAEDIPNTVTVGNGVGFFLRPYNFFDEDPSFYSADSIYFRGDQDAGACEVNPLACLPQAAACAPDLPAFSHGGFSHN
# Procedure, shortened: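 Hydrogen peroxide from benzylamine (1 mM) oxidation by human recombinant VAP-1 detected via HRP-coupled Amplex Red (200 uM) fluorescence, kinetic over 1–2 h. Enzyme and compound preincubated 30 min at 37 °C, pH 7.4 phosphate; 8-point dose response, signal-rate decrease versus DMSO control fitted to four-parameter logistic for IC50.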
# [4] = target: T4, recombinant human DAO (diamine oxidase) (Homo sapiens, UniProt P19801); assay: Activity evaluation on recombinant human DAO (Amplex Red/HRP-coupled assay, 1 mM putrescine substrate); settings: read-out: Inhibitory Activity (IC50, nM) DAO
# T4 construct: purchased R&D systems
# T4 sequence (P19801 20-751): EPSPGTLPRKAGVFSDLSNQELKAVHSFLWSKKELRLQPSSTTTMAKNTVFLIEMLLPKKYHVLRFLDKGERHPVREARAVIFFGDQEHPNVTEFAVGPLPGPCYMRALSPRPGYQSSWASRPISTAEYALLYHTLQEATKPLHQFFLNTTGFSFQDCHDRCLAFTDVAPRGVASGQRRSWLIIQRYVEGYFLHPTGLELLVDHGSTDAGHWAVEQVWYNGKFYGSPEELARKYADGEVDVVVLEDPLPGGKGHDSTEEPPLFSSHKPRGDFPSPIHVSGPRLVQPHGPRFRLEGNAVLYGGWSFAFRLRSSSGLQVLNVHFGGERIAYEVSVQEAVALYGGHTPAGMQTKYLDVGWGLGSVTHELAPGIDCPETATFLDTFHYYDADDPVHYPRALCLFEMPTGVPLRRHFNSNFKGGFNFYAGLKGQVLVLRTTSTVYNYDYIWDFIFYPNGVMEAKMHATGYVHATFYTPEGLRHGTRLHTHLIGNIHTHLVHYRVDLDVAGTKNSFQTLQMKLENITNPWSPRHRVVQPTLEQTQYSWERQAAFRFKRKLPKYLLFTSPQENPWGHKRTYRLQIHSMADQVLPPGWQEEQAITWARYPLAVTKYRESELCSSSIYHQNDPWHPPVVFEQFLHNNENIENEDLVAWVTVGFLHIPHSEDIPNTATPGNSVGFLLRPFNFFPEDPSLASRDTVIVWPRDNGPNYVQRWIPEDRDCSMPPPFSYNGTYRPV
# Procedure, shortened: as §1
# [5] = recombinant human VAP-1, benzylamine substrate
# [6] = recombinant human VAP-1, 30 min preincubation at 37° C., 1 mM benzylamine
Structure (SMILES),IC50 ([1]; 0.5 mM tyramine substrate) [nM],IC50 ([2]; 1 mM benzylamine substrate) [nM],"IC50 [3, 5] [nM]",IC50 ([4]; 1 mM putrescine substrate) [nM],IC50 ([1]; 0.5 mM tyramine) [nM],IC50 ([2]; 1 mM benzylamine) [nM],"IC50 [3, 6] [nM]",IC50 ([4]; 1 mM putrescine) [nM]
"CS(=O)(=O)c1ccc(-c2ccc3cc(Cn4cnn(CC(CN)=C(F)F)c4=O)sc3c2)cc1 [Example 197, 2-[2-(aminomethyl)-3,3-difluoro-allyl]-4-[[6-(4-methylsulfonylphenyl)benzothiophen-2-yl]methyl]-1,2,4-triazol-3-one trifluoroacetate]",> 100000,18000,0.8,2400,–,–,–,–
"NCC(Cn1ncn(-c2ncc(-c3ccc(C(F)(F)F)nc3)cc2F)c1=O)=C(F)F [Example 84, 2-[2-(aminomethyl)-3,3-difluoro-allyl]-4-[3-fluoro-5-[6-(trifluoromethyl)-3-pyridyl]-2-pyridyl]-1,2,4-triazol-3-one Trifluoroacetate]",–,–,–,–,> 100000,900,0.2,7
"Cn1cc(C#Cc2cccc(-n3cnn(CC(CN)=C(F)F)c3=O)n2)cn1 [Example 160, 2-[2-(aminomethyl)-3,3-difluoro-allyl]-4-[6-[2-(1-methylpyrazol-4-yl)ethynyl]-2-pyridyl]-1,2,4-triazol-3-one trifluoroacetate]",–,–,–,–,> 100000,15600,1.5,5090
"NCC(Cn1ncn(-c2ccc(-c3ccc(C(F)(F)F)nc3)nc2)c1=O)=C(F)F [Example 40, 2-[2-(aminomethyl)-3,3-difluoro-allyl]-4-[6-[6-(trifluoromethyl)-3-pyridyl]-3-pyridyl]-1,2,4-triazol-3-one Trifluoroacetate]",–,–,–,–,> 100000,200,0.3,12
"CC(C)n1cc(-c2ccc(Cn3cnn(CC(CN)=C(F)F)c3=O)s2)cn1 [Example 184, 2-[2-(aminomethyl)-3,3-difluoro-allyl]-4-[[5-(1-isopropylpyrazol-4-yl)-2-thienyl]methyl]-1,2,4-triazol-3-one Trifluoroacetate]",> 100000,26000,2.6,72000,–,–,–,–
"CN1CCOc2cc(-c3ccc(Cn4cnn(CC(CN)=C(F)F)c4=O)s3)ccc21 [Example 140, 2-[2-(aminomethyl)-3,3-difluoro-allyl]-4-[[5-(4-methyl-2,3-dihydro-1,4-benzoxazin-7-yl)-2-thienyl]methyl]-1,2,4-triazol-3-one Trifluoroacetate]",–,–,–,–,6600,8000,0.8,6800
"CN1C(=O)CCc2cc(-c3ccc(-n4cnn(CC(CN)=C(F)F)c4=O)cn3)ccc21 [Example 44, 6-[5-[1-[2-(aminomethyl)-3,3-difluoro-allyl]-5-oxo-1,2,4-triazol-4-yl]-2-pyridyl]-1-methyl-3,4-dihydroquinolin-2-one Trifluoroacetate]",–,–,–,–,> 100000,110,0.3,14
"CS(=O)(=O)c1ccc(-c2ccc(Cn3cnn(CC(CN)=C(F)F)c3=O)s2)cc1 [Example 101, 2-[2-(aminomethyl)-3,3-difluoro-allyl]-4-[[5-(4-methylsulfonylphenyl)-2-thienyl]methyl]-1,2,4-triazol-3-one Trifluoroacetate]",–,–,–,–,> 100000,67000,0.3,21000
"CS(=O)(=O)n1cc(-c2ccc(Cn3cnn(CC(CN)=C(F)F)c3=O)s2)cn1 [Example 293, 2-[2-(aminomethyl)-3,3-difluoro-allyl]-4-[[5-(1-methylsulfonylpyrazol-4-yl)-2-thienyl]methyl]-1,2,4-triazol-3-one Trifluoroacetate]",> 100000,> 100000,2.4,25300,–,–,–,–
"Cc1cc(C#Cc2ccc3c(c2)CCC(=O)N3)cnc1-n1cnn(CC(CN)=C(F)F)c1=O [Example 249, 6-[2-[6-[1-[2-(aminomethyl)-3,3-difluoro-allyl]-5-oxo-1,2,4-triazol-4-yl]-5-methyl-3-pyridyl]ethynyl]-3,4-dihydro-1H-quinolin-2-one Trifluoroacetate]",> 100000,3100,0.9,3900,–,–,–,–
"NCC(Cn1ncn(Cc2ccc(-c3cnn(C(F)F)c3)s2)c1=O)=C(F)F [Example 183, 2-[2-(aminomethyl)-3,3-difluoro-allyl]-4-[[5-[1-(difluoromethyl)pyrazol-4-yl]-2-thienyl]methyl]-1,2,4-triazol-3-one Trifluoroacetate]",> 100000,2100,1.4,> 100000,–,–,–,–
"NCC(Cn1ncn(-c2ncc(Br)cc2F)c1=O)=C(F)F [Example 14, 2-[2-(aminomethyl)-3,3-difluoro-allyl]-4-(5-bromo-3-fluoro-2-pyridyl)-1,2,4-triazol-3-one Trifluoroacetate]",–,–,–,–,> 100000,40000,1.4,4100
"NCC(Cn1ncn(-c2cccc(-c3ccc(N4CCOCC4)nc3)n2)c1=O)=C(F)F [Example 215, 2-[2-(aminomethyl)-3,3-difluoro-allyl]-4-[6-(6-morpholino-3-pyridyl)-2-pyridyl]-1,2,4-triazol-3-one Trifluoroacetate]",> 100000,> 100000,0.7,280,–,–,–,–
